Reference: patent US6486199B1, “Spiro and dispiro 1,2,4-trioxolane antimalarials” (Medicines for Malaria Venture MMV International Centre …, priority 2001, dated 2002)

What was measured:
[1] = differential scanning calorimetry (DSC), thermal stability; format: physicochemical; conditions: thermal decomposition
[2] = tested on: ANKA strain of P. Berghei; experiment: single dose STI in vivo screen in infected Moro SPF mice; conditions: for antimalarial activity, overall assessment: overall judgement of in vitro and in vivo data of Table 2; for Survival (days) po / Activity (%) po: single 10 mg/kg po; for Survival (days) sc / Activity (%) sc: single 10 mg/kg sc; for Activity (%) po / Activity (%) sc: percent reduction in parasitemia day 3 post-infection
Experimental: In the single dose STI in vivo screen, Moro SPF mice infected with the ANKA strain of P. Berghei (groups of three mice) were treated on day one post-infection with trioxolanes dissolved or suspended in 3% ethanol and 7% Tween 80. […] Antimalarial activity was measured by percent redution in parasitemia on day three post-infection and survival times compared to an untreated control group. Survival to day 30 post-infection is considered to be a cure.

P. berghei = experiment: 1-day Peters test against P. berghei in vivo; conditions: 1 day, po

SMILES | Tm dec. (° C.) [1] [°C] | other results
Clc1ccc(C2CCC3(CC2)OOC2(O3)C3CC4CC(C3)CC2C4)cc1 (stereo not shown) [OZ47, Adamantane-2-spiro-3′-8′-(4′-chlorophenyl)-1′,2′,4′-trioxaspiro[4.5]decane] | 159.3 | 
COC1(c2ccc(F)cc2)CCC2(CC1)OOC1(O2)C2CC3CC(C2)CC1C3 (stereo not shown) [OZ77, Adamantane-2-spiro-3′-8′-(4′-fluorophenyl)-8′-methoxy-1′,2′,4′-trioxaspiro[4.5]decane] | 161.3 | antimalarial activity, overall assessment [2]: excellent activity
FC(F)(F)c1ccc(C2CCC3(CC2)OOC2(O3)C3CC4CC(C3)CC2C4)cc1 (stereo not shown) [OZ48, Adamantane-2-spiro-3′-8′-[4′-(trifluoromethyl)phenyl]-1′,2′,4′-trioxaspiro[4.5]decane] | 156.1 | 
CC1(C)COC2(CCC3(CC2)OOC2(O3)C3CCCC2CCC3)OC1 (stereo not shown) [OZ68, Bicyclo[3.3.1]nonane-9-spiro-3′-11′,11′-dimethyl-1′,2′,4′,9′,13′-pentaoxadispiro[4.2.5.2]pentadecane] | 163.1 | antimalarial activity, overall assessment [2]: similarly inactive
Fc1c(F)c(F)c(C2(c3c(F)c(F)c(F)c(F)c3F)OOC3(O2)C2CC4CC(C2)CC3C4)c(F)c1F (stereo not shown) [OZ45, Adamantane-2-spiro-3′-5′,5′-bis(2′,3′,4′,5′,6′-pentafluorophenyl)-5′,2′,4′-trioxolane] | 133.7 | 
CC(C)C1CCC2(CC1)OOC1(O2)C2CC3CC(C2)CC1C3 (stereo not shown) [OZ40, Adamantane-2-spiro-3′-8′-isopropyl-1′,2′,4′-trioxaspiro[4.5]decane] | 164.2 | 
CC(C)(C)OC(=O)N1CCC2(CC1)OOC1(O2)C2CC3CC(C2)CC1C3 (stereo not shown) [OZ35, Adamantane-2-spiro-3′-8′-t-butoxycarbonyl-1′,2′,4′-trioxa-8′-azaspiro[4.5]decane] | 159.4 | 
Fc1ccc(C2CCC3(CC2)OOC2(O3)C3CC4CC(C3)CC2C4)cc1 (stereo not shown) [OZ41, Adamantane-2-spiro-3′-8′-(4′-fluorophenyl)-1′,2′,4′-trioxaspiro[4.5]decane] | 159.0 | P. berghei (1 day) ED50 po (P. berghei): 2.8 mg/kg; P. berghei (1 day) ED90 po (P. berghei): 5.1 mg/kg
CC1(C)CC(C)(C)CC2(C1)OOC1(O2)C2CC3CC(C2)CC1C3 (stereo not shown) [OZ26, Adamantane-2-spiro-3′-7′,9′-tetramethyl-1′,2′,4′-trioxaspiro[4.5]decane] | 173.4 | 
COc1ccc(S(=O)(=O)N2CCC3(CC2)OOC2(O3)C3CC4CC(C3)CC2C4)cc1 (stereo not shown) [OZ59, Adamantane-2-spiro-3′-8′-(4′-methoxybenzenesulfonyl)-1′,2′,4′-trioxa-8′-azaspiro[4.5]decane] | 152.2 | 
O=C1c2ccccc2C(=O)N1N=C1CCC2(CC1)OOC1(O2)C2CC3CC(C2)CC1C3 (stereo not shown) [OZ38, Adamantane-2-spiro-3′-8′-(N-phthalimido)imino-1′,2′,4′-trioxaspiro[4.5]decane] | 165.1 | 
CC(=O)OC1(c2ccc(F)cc2)CCC2(CC1)OOC1(O2)C2CC3CC(C2)CC1C3 (stereo not shown) [OZ69, Adamantane-2-spiro-3′-8′-acetoxy-8′-(4′-fluorophenyl)-1′,2′,4′-trioxaspiro[4.5]decane] | 164.1 | Survival (days) po [2]: 6.3/6.3 days; Survival (days) sc [2]: 6.3/6.3 days
CON=C1CC2CC3(CC2C1)OOC1(O3)C2CC3CC(C2)CC1C3 (stereo not drawn) [OZ37, Adamantane-2-spiro-3′-1′,2′,4′-trioxolane-5′-spiro-3″-7″-methoxyimino-cis-bicyclo[3.3.0]octane] | 151.2 | 
ON=C1CCC2(CC1)OOC1(O2)C2CC3CC(C2)CC1C3 (stereo not shown) [OZ16, Adamantane-2-spiro-3′-8′-hydroxyimino-1′,2′,4′-trioxaspiro[4.5]decane] | 153.6 | 
Cc1ccc(S(=O)(=O)N2CCC3(CC2)OOC2(O3)C3CC4CC(C3)CC2C4)cc1 (stereo not shown) [OZ51, Adamantane-2-spiro-3′-8′-(p-toluenesulfonyl)-1′,2′,4′-trioxa-8′-azaspiro[4.5]decane] | 152.3 | 
c1ccc(C2CCC3(CC2)OOC2(O3)C3CCCC2CCC3)cc1 (stereo not shown) [OZ67, Bicyclo[3.3.1]nonane-9-spiro-3′-8′-phenyl-1′,2′,4′-trioxaspiro[4.5]decane] | 162.3 | antimalarial activity, overall assessment [2]: completely inactive; Activity (%) po [2]: 0/0%; Activity (%) sc [2]: 0/0%; Survival (days) po [2]: 5.0/5.0 days; Survival (days) sc [2]: 5.0/5.0 days
c1ccc(C2(c3ccccc3)OOC3(O2)C2CC4CC(C2)CC3C4)cc1 (stereo not shown) [OZ42, Adamantane-2-spiro-3′-5′,5′-diphenyl-1′,2′,4′-trioxolane] | 159.1 | 
O=C1CC2CC(C1)CC1(C2)OOC2(O1)C1CC3CC(C1)CC2C3 (stereo not shown) [OZ13, Adamantane-2-spiro-3′-1′,2′,4′-trioxolane-5′-spiro-3″-7″-oxobicyclo[3.3.1]nonane] | 170.1 | 

SMILES | Tm dec. (° C.) [1] [°C] | other results
Fc1ccc(C2(c3ccc(F)cc3)OOC3(O2)C2CC4CC(C2)CC3C4)cc1 (stereo not shown) [OZ44, Adamantane-2-spiro-3′-5′, 5′-bis(4′-fluorophenyl)-1′,2′,4′-trioxolane] | 157.5 | 
N#CC1(c2ccccc2)CCC2(CC1)OOC1(O2)C2CC3CC(C2)CC1C3 (stereo not shown) [OZ63, Adamantane-2-spiro-3′-8′-cyano-8′-phenyl-1′,2′,4′-trioxaspiro[4.5]decane] | 158.3 | 
c1ccc(CC2(Cc3ccccc3)OOC3(O2)C2CC4CC(C2)CC3C4)cc1 (stereo not shown) [OZ52, Adamantane-2-spiro-3′-5′,5′-dibenzyl-1′,2′,4′-trioxolane] | 154.9 | 
CC1(C)CCC2(CC1)OOC1(O2)C2CC3CC(C2)CC1C3 (stereo not shown) [OZ33, Adamantane-2-spiro-3′-8′,8′-dimethyl-1′,2′,4′-trioxaspiro[4.5]decane] | 163.1 | 
O=C(O)CCC(=O)N1CCC2(CC1)OOC1(O2)C2CC3CC(C2)CC1C3 (stereo not shown) [OZ58, Adamantane-2-spiro-3′-8′-(3′-carboxypropionyl)-1′,2′,4′-trioxa-8′-azaspiro[4.5]decane] | 147.0 | 
CC(C)(C)COC(=O)C1CCC2(CC1)OOC1(O2)C2CC3CC(C2)CC1C3 (stereo not shown) [OZ64, Adamantane-2-spiro-3′-8′-neopentyloxycarbonyl-1′,2′,4′-trioxaspiro[4.5]decane] | 163.8 | 
CC(C)(C)ON=C1CCC2(CC1)OOC1(O2)C2CC3CC(C2)CC1C3 (stereo not shown) [OZ28, Adamantane-2-spiro-3′-8′-t-butyloxyimino-1′,2′,4′-trioxaspiro[4.5]decane] | 162.4 | 
CCN(CC)C(=O)C1CCC2(CC1)OOC1(O2)C2CC3CC(C2)CC1C3 (stereo not shown) [OZ73, Adamantane-2-spiro-3′-8′-diethylaminocarbonyl-1′,2′,4′-trioxaspiro[4.5] decane] | 160.2 | antimalarial activity, overall assessment [2]: only weakly active
FC(F)(F)c1cccc(C2(c3cccc(C(F)(F)F)c3)OOC3(O2)C2CC4CC(C2)CC3C4)c1 (stereo not shown) [OZ46, Adamantane-2-spiro-3′-5′,5′-bis[3′-(trifluoromethyl)phenyl]-1′,2′,4′-trioxolane] | 161.3 | 
O=S(=O)(c1ccc(Cl)cc1)N1CCC2(CC1)OOC1(O2)C2CC3CC(C2)CC1C3 (stereo not shown) [OZ57, Adamantane-2-spiro-3′-8′-(4′-chlorobenzenesulfonyl)-1′,2′,4′-trioxa-8′-azaspiro[4.5]decane] | 158.0 | 
OC1(c2ccc(F)cc2)CCC2(CC1)OOC1(O2)C2CC3CC(C2)CC1C3 (stereo not shown) [OZ76, Adamantane-2-spiro-3′-8′-(4′-fluorophenyl)-8′-hydroxy-1′,2′,4′-trioxaspiro[4.5]decane] | 149.6 | 
O=S(=O)(c1ccccc1)N1CCC2(CC1)OOC1(O2)C2CC3CC(C2)CC1C3 (stereo not shown) [OZ60, Adamantane-2-spiro-3′-8′-benzenesulfonyl-1′, 2′,4′-trioxa-8′-azaspiro[4.5]decane] | 152.6 | 
O=C(O)CON=C1CCC2(CC1)OOC1(O2)C2CC3CC(C2)CC1C3 (stereo not shown) [OZ54, Adamantane-2-spiro-3′-8′-carboxymethoxyimino-1′,2′,4′-trioxaspiro[4.5]decane] | 149.3 | Survival (days) po [2]: 7.0/7.0 days; Survival (days) sc [2]: 7.0/7.0 days
N#CC1(c2ccc(Cl)c(Cl)c2)CCC2(CC1)OOC1(O2)C2CC3CC(C2)CC1C3 (stereo not shown) [OZ75, Adamantane-2-spiro-3′-8′-cyano-8′-(3′,4′-dichlorophenyl)-1′,2′,4′-trioxaspiro[4.5]decane] | 159.1 | 
O=C(OC1CCC2(CC1)OOC1(O2)C2CC3CC(C2)CC1C3)c1ccccc1 (stereo not shown) [OZ74, Adamantane-2-spiro-3′-8′-benzoyloxy-1′,2′,4′-trioxaspiro[4.5]decane] | 161.2 | 
c1ccc(C2(c3ccccc3)CCC3(CC2)OOC2(O3)C3CC4CC(C3)CC2C4)cc1 (stereo not shown) [OZ34, Adamantane-2-spiro-3′-8′,8′-diphenyl-1′,2′,4′-trioxaspiro[4.5]decane] | 181.4 | Activity (%) po [2]: 0/0%; Activity (%) sc [2]: 0/0%
CS(=O)(=O)N1CCC2(CC1)OOC1(O2)C2CC3CC(C2)CC1C3 (stereo not shown) [OZ56, Adamantane-2-spiro-3′-8′-methanesulfonyl-1′,2′,4′-trioxa-8′-azaspiro[4.5]decane] | 158.0 | 
CCOC(=O)CCC(=O)N1CCC2(CC1)OOC1(O2)C2CC3CC(C2)CC1C3 (stereo not shown) [OZ53, Adamantane-2-spiro-3′-8′-[3′-(ethoxycarbonyl)propionyl]-1′,2′,4′-trioxa-8′-azaspiro[4.5]decane] | 152.7 | 
